Measurements published in patent publication US9139532B2, “Pyrazolyl guanidine F1F0-atpase inhibitors and therapeutic uses thereof” (Lycera Corporation, priority 2010, dated 2015).

Columns and labels:
[1] = target: T1, F1F0-ATPase (Bos taurus, UniProt P13621); assay: Inhibition of F1F0-ATPase activity in synthesizing ATP; type: biochemical; conditions: inhibition of ATP synthesis by F1F0-ATPase; read-out: ATP Syn IC50
T1 construct: from tissue

[2] = test system: Ramos cells; assay: Cytotoxicity in Ramos cells; type: cell-based; conditions: Homo sapiens; cytotoxicity in Ramos cells; read-out: Ramos Cell EC50

Row | IC50 [1] [µM] | Compound | EC50 [2] [µM]
1 | < 10 | O=C(/N=C(/NCc1ccc(F)c(Cl)c1)Nc1cc(C(F)F)[nH]n1)c1ccc(Cl)cc1 [Compound A-56] | > 10
2 | < 10 | CC(C)(C)N/C(=N/C(=O)c1ccc(F)c(F)c1)Nc1cc(C(F)F)[nH]n1 [Compound A-62] | < 10
3 | < 10 | CC(C)(C)N/C(=N/C(=O)c1ccc(C(F)F)cc1)Nc1cc(C(F)(F)F)[nH]n1 [Compound A-64] | < 10
4 | < 10 | CC(C)(C)CN/C(=N/C(=O)c1ccc(Cl)cc1)Nc1cc(C(F)F)[nH]n1 [Compound A-69] | < 10
5 | < 10 | CC(C)(C)N/C(=N/C(=O)c1ccc(C#N)cc1)Nc1cc(C(F)(F)F)[nH]n1 [Compound A-71] | < 10
6 | < 10 | CC(C)(C)N/C(=N/C(=O)c1cccc(C#N)c1)Nc1cc(C(F)(F)F)[nH]n1 [Compound A-73] | < 10
7 | < 10 | O=C(/N=C(\Nc1cc(C(F)(F)F)[nH]n1)NC1CCCC1)c1cccc(C(F)(F)F)c1 [Compound A-75] | < 10
8 | < 10 | CC(C)(C)CN/C(=N/C(=O)c1cccc(C(F)(F)F)c1)Nc1cc(C(F)(F)F)[nH]n1 [Compound A-76] | < 10

Second part, the molecule before the results:

Row | Compound | IC50 [1] [µM] | EC50 [2] [µM]
9 | CC(C)N/C(=N/C(=O)c1ccc(Cl)cc1)Nc1cc(C(F)F)[nH]n1 [Compound A-55] | < 10 | > 10
10 | O=C(/N=C(/Nc1cc(F)cc(Cl)c1)Nc1cc(C(F)F)[nH]n1)c1ccc(Cl)cc1 [Compound A-57] | < 10 | < 10
11 | CC(C)N/C(=N/C(=O)c1ccc(C(F)(F)F)cc1)Nc1cc(C(F)F)[nH]n1 [Compound A-58] | < 10 | > 10
12 | O=C(/N=C(/NCc1ccc(F)c(Cl)c1)Nc1cc(C(F)F)[nH]n1)c1ccc(C(F)(F)F)cc1 [Compound A-59] | < 10 | > 10
13 | O=C(/N=C(/Nc1cc(F)cc(Cl)c1)Nc1cc(C(F)F)[nH]n1)c1ccc(C(F)(F)F)cc1 [Compound A-60] | < 10 | < 10
14 | O=C(/N=C(/NCc1ccc(F)c(Cl)c1)Nc1cc(C(F)F)[nH]n1)c1ccc(F)c(F)c1 [Compound A-61] | < 10 | > 10
15 | CC(C)N/C(=N/C(=O)c1ccc(F)c(F)c1)Nc1cc(C(F)F)[nH]n1 [Compound A-63] | < 10 | > 10
16 | CC(C)(C)N/C(=N/C(=O)c1ccc(Cl)c(F)c1)Nc1cc(C(F)F)[nH]n1 [Compound A-65] | < 10 | < 10
17 | CC(C)(C)CN/C(=N/C(=O)c1ccc(C(F)F)cc1)Nc1cc(C(F)(F)F)[nH]n1 [Compound A-66] | < 10 | < 10
18 | O=C(/N=C(\Nc1cc(C(F)(F)F)[nH]n1)NC1CCCC1)c1ccc(C(F)F)cc1 [Compound A-67] | < 10 | < 10
19 | CC(C)(C)CN/C(=N/C(=O)c1ccc(C(F)(F)F)cc1)Nc1cc(C(F)F)[nH]n1 [Compound A-68] | < 10 | < 10
20 | CC(C)(C)CN/C(=N/C(=O)c1ccc(C#N)cc1)Nc1cc(C(F)(F)F)[nH]n1 [Compound A-70] | < 10 | < 10
21 | CC(C)(C)CN/C(=N/C(=O)c1cccc(C#N)c1)Nc1cc(C(F)(F)F)[nH]n1 [Compound A-72] | < 10 | < 10
22 | CCC(C)(C)N/C(=N/C(=O)c1ccc(C(F)F)cc1)Nc1cc(C(F)(F)F)[nH]n1 [Compound A-74] | < 10 | < 10
23 | CC(C)(C)N/C(=N/C(=O)c1cccc(C(F)(F)F)c1)Nc1cc(C(F)(F)F)[nH]n1 [Compound A-77] | < 10 | < 10
24 | CCC(C)(C)N/C(=N/C(=O)c1cccc(C(F)(F)F)c1)Nc1cc(C(F)(F)F)[nH]n1 [Compound A-78] | < 10 | < 10
25 | CC(C)(C)N/C(=N/C(=O)c1ccc(C(F)(F)F)nc1)Nc1cc(C(F)(F)F)[nH]n1 [Compound A-79] | < 10 | < 10
